In brackets after ≈: the same amount, converted by molar mass. Where two headings read alike, the source gives them in different places.

In one assay the target is human (hACC2) (Homo sapiens, UniProt O00763). The assay can be described thus: In vitro ACC inhibition assay (ADP-Glo), hACC2. In kind it is biochemical. Conditions: 5 nM ACC2, 20 μM ATP, 20 μM acetyl-CoA. The procedure:
The detailed procedure is as follows. […] 10 μL ADP glo reagent was added. […] 20 μL kinase detection reagent was added.
On the technique in general: ADP-Glo first removes unused ATP, then detects ADP through luciferase.

For a further assay, the system named is C. krusei. The assay can be described thus: Antifungal Activity Assay (broth microtiter MIC), C. krusei. The following applies: Pichia kudriavzevii, ATCC6258, 48 h. In kind it is cell-based, Candida krusei. The method in brief:
(§1)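 Endpoint: lowest concentration visibly inhibiting growth relative to control after 48 h. Inoculum of 2.5×10^3 CFU/mL final in RPMI 1640+MOPS, prepared from overnight 35° C agar cultures; test compounds diluted in water to 128 μg/mL before plating.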

In a further assay the test system is C. albicans. Nature of the assay: Antifungal Activity Assay (broth microtiter MIC), C. albicans. In kind it is cell-based, Candida albicans. The following applies: Candida albicans, ATCC90028, 48 h. In a few lines:
as §1

Another assay concerns C. parapsilosis. The assay can be described thus: Antifungal Activity Assay (broth microtiter MIC), C. parapsilosis. In kind it is cell-based, Candida parapsilosis. The following applies: Lodderomyces parapsilosis, ATCC22019, 48 h. The method in brief: as §1
Another assay concerns the target fungal (fACC2) (UniProt Q00955). Conditions: read-out: fACC2 (in vitro ACC2 Inhibition Assay, IC50), ADP-Glo, 5 nM ACC2, 20 μM ATP, 20 μM acetyl-CoA.
The mark [1] stands for this setting: read-out: MIC, C. krusei ATCC 6258, Table 3b (additional results), 3 replicates, MIC recorded at 48 h.
Where [2] appears, read: read-out: MIC, C. albicans ATCC 90028, Table 3b (additional results), 3 replicates, MIC recorded at 48 h.
The mark [3] stands for this setting: read-out: MIC, C. parapsilosis ATCC 22019, Table 3b (additional results), 3 replicates, MIC recorded at 48 h.
Setting [4] is: Table 3b (additional results), ATCC 6258, 3 replicates, MIC recorded at 48 h, read-out: MIC, C. krusei ATCC 6258.
[5] abbreviates: Table 3b (additional results), ATCC 90028, 3 replicates, MIC recorded at 48 h, read-out: MIC, C. albicans ATCC 90028.
[6] abbreviates: Table 3b (additional results), ATCC 22019, 3 replicates, MIC recorded at 48 h, read-out: MIC, C. parapsilosis ATCC 22019.

Chain of human (hACC2) (O00763 whole entry): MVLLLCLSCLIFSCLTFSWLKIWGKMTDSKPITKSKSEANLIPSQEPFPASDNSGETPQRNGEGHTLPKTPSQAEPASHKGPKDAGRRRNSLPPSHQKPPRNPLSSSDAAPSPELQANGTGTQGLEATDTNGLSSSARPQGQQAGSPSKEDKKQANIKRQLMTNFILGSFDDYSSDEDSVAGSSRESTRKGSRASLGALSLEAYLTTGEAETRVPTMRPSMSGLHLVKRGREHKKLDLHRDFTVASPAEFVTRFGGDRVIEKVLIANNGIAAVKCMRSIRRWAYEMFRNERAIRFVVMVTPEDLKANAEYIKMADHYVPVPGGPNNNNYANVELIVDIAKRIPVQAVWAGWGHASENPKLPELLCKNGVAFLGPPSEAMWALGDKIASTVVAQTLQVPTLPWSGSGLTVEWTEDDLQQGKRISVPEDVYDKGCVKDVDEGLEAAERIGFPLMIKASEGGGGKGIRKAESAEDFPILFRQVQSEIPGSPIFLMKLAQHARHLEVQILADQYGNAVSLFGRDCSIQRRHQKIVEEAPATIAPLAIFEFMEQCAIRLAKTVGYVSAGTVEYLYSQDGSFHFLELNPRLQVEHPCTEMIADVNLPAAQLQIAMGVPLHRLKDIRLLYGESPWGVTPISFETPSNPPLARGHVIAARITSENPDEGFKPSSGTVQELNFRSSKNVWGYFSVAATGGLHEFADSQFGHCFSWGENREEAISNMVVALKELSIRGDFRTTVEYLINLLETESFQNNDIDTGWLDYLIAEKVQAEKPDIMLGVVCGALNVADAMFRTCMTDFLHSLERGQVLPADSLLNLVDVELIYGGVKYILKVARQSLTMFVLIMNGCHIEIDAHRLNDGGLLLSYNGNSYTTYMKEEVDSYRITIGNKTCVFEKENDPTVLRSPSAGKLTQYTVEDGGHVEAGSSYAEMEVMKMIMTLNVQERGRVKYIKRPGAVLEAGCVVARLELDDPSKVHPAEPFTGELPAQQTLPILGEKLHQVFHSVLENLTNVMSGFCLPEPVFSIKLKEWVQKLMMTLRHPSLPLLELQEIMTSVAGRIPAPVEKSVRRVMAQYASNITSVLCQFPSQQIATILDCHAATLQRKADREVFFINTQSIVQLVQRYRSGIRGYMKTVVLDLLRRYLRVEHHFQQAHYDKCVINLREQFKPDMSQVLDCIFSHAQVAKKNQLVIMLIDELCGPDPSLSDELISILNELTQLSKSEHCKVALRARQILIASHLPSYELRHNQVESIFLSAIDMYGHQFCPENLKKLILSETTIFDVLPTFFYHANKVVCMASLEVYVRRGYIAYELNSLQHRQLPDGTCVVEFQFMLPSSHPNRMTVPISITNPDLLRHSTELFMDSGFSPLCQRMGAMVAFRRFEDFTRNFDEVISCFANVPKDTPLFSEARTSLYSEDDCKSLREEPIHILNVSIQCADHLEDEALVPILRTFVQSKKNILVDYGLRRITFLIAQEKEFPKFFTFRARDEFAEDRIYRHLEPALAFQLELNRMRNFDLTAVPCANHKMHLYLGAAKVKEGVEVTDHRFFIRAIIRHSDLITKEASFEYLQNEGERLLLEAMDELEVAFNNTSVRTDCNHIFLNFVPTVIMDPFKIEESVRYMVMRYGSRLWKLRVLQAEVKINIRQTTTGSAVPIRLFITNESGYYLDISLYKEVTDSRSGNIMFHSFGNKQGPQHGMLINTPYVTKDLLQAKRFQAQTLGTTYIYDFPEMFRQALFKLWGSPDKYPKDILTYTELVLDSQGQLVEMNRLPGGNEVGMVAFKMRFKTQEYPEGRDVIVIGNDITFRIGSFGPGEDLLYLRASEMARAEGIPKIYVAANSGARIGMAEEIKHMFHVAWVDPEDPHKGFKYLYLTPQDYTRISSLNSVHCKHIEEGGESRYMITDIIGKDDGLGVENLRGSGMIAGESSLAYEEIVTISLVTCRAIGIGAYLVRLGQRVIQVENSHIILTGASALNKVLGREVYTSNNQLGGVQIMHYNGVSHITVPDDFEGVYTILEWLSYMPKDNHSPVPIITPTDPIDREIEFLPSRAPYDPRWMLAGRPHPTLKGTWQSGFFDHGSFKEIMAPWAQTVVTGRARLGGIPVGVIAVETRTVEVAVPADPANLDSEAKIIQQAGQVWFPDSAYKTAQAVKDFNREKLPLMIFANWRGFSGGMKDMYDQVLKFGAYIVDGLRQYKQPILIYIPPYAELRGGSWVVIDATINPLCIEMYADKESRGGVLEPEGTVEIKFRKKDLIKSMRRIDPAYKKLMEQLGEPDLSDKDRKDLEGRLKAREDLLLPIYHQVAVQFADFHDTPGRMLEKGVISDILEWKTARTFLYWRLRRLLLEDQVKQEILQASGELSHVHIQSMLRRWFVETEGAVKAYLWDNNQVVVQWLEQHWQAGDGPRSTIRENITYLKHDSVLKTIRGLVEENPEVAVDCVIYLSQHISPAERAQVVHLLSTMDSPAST
Chain of fungal (fACC2) (Q00955 whole entry): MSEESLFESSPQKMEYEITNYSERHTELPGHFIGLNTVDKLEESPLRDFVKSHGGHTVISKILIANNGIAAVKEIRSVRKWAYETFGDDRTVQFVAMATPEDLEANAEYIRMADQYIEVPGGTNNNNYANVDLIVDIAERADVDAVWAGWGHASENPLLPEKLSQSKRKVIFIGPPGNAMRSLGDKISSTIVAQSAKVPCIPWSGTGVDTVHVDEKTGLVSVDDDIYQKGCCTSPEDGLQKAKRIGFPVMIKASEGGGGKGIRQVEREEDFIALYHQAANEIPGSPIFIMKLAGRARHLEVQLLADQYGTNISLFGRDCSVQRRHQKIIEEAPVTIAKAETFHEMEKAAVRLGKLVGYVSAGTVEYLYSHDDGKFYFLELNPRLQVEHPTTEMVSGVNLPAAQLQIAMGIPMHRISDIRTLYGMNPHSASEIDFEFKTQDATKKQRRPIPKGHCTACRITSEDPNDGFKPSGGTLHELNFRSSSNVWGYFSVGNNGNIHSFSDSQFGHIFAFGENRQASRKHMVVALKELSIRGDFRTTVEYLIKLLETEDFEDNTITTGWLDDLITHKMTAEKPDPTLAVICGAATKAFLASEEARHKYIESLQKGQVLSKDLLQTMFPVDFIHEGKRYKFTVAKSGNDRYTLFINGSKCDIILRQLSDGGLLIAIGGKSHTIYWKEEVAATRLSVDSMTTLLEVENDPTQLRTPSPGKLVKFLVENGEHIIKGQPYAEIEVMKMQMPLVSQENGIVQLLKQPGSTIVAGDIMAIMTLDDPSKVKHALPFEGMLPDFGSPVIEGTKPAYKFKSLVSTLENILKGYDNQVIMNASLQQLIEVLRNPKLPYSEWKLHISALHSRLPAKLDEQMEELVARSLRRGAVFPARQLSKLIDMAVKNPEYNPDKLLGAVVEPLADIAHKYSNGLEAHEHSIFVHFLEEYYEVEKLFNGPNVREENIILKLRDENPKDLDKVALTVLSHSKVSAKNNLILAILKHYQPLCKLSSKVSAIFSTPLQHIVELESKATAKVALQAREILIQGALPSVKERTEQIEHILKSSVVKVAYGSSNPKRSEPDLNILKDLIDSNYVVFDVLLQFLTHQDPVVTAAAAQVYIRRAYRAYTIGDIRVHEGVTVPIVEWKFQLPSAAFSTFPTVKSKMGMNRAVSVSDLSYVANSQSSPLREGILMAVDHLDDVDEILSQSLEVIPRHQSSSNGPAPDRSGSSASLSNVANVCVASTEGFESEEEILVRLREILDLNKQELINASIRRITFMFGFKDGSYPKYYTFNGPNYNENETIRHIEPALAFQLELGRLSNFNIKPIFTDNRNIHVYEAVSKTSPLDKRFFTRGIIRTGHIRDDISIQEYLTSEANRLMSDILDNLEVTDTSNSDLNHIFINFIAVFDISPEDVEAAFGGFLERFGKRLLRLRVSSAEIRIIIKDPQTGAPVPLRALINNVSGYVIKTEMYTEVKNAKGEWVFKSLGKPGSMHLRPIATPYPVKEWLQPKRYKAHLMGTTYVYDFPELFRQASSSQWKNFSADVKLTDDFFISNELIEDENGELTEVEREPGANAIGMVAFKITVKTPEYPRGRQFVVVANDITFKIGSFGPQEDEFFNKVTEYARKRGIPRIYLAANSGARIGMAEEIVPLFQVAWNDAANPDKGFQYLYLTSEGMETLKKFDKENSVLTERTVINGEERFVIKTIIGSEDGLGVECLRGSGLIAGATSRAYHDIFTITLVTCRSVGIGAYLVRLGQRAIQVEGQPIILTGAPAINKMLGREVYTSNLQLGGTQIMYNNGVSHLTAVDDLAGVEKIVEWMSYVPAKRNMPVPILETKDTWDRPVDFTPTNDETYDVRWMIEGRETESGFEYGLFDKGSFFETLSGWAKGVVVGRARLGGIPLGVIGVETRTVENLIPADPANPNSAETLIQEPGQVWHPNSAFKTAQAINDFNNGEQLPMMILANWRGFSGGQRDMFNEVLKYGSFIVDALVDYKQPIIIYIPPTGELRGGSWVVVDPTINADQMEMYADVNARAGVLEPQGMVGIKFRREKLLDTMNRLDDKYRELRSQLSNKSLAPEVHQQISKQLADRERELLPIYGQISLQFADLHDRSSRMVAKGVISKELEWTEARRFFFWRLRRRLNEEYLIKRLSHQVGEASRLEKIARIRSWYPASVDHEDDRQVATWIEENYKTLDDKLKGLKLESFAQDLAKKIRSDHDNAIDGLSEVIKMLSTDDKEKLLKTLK

Broadly, the IC50 is the midpoint of a concentration-inhibition curve. A word on the MIC: it is the lowest concentration that inhibits growth of the organism. For `COc1ccc(F)cc1[C@H](Cn1c(=O)n([C@@H](C)C(=O)NC(C)C)c(=O)c2c(C)c(-n3nccn3)sc21)OCC(C)(C)O` [Compound I-172], the half-maximal inhibitory concentration (IC50) against human (hACC2) (Table 2a) fell in the range of 5 to 10 nM; against human (hACC2) (Table 2b, additional results), 5 to 10 nM; on fungal (fACC2) (Table 2a), 0.4 to 1 nM; on fungal (fACC2) (Table 2b, additional results), 0.3 to 1 nM. Further, the minimal inhibitory concentration (MIC) was in the range of 2.01 to 4 µg/mL (≈ 3.34 to 6.64 µM) in the assay on C. krusei (setting [1]), 1.01 to 2 µg/mL (≈ 1.68 to 3.32 µM) with C. albicans (setting [2]) and 1.01 to 2 µg/mL (≈ 1.68 to 3.32 µM) in the assay on C. parapsilosis (setting [3]).
On to `COc1ccc(F)cc1[C@H](Cn1c(=O)n([C@H](C)C(N)=O)c(=O)c2c(C)c(-n3nccn3)sc21)OCC(C)(C)O` [Compound I-173], for which the IC50 on human (hACC2) (Table 2a) was 10 to 40 nM; against human (hACC2) (Table 2b, additional results) it was 10 to 40 nM; on fungal (fACC2) (Table 2a) it was 1 to 5 nM; on fungal (fACC2) (Table 2b, additional results) it was 1 to 5 nM. Further, the minimum inhibitory concentration (MIC) in the assay with C. krusei (setting [4]) was over 4.01 µg/mL; in the assay on C. albicans (setting [5]), 0.25 to 1 µg/mL (≈ 0.446 to 1.78 µM); in the assay with C. parapsilosis (setting [6]), 2.01 to 4 µg/mL (≈ 3.59 to 7.14 µM).
Consider `COc1ccc(F)cc1[C@H](Cn1c(=O)n([C@@H](C)C(N)=O)c(=O)c2c(C)c(-n3nccn3)sc21)OCC(C)(C)O` [Compound I-174], for which the IC50 was in the range of 5 to 10 nM against human (hACC2) (Table 2a); 5 to 10 nM against human (hACC2) (Table 2b, additional results); 0.4 to 1 nM at fungal (fACC2) (Table 2a); 0.3 to 1 nM at fungal (fACC2) (Table 2b, additional results). Further, the MIC was over 4.01 µg/mL with C. krusei (setting [4]), 0.25 to 1 µg/mL (≈ 0.446 to 1.78 µM) with C. albicans (setting [5]) and 2.01 to 4 µg/mL (≈ 3.59 to 7.14 µM) in the assay with C. parapsilosis (setting [6]).
As for `COc1ccc(F)cc1[C@H](Cn1c(=O)n([C@H](C)C(=O)N2CCCC2)c(=O)c2c(C)c(-n3nccn3)sc21)OCC(C)(C)O` [Compound I-175], the IC50 against human (hACC2) (Table 2a) lay in the range of 5 to 10 nM; on human (hACC2) (Table 2b, additional results), 5 to 10 nM; at fungal (fACC2) (Table 2a), 0.4 to 1 nM; at fungal (fACC2) (Table 2b, additional results), 0.3 to 1 nM. In addition, the values for the MIC in the assay on C. krusei (setting [4]), in the assay on C. albicans (setting [5]) and in the assay with C. parapsilosis (setting [6]) were 2.01 to 4 µg/mL (≈ 3.27 to 6.51 µM), 0.25 to 1 µg/mL (≈ 0.407 to 1.63 µM) and 1.01 to 2 µg/mL (≈ 1.64 to 3.25 µM), respectively.
In the case of `COc1ccc(F)cc1[C@H](Cn1c(=O)n([C@@H](C)C(=O)N2CCCC2)c(=O)c2c(C)c(-n3nccn3)sc21)OCC(C)(C)O` [Compound I-176], the IC50 at human (hACC2) (Table 2a) lay within 10 to 40 nM; against human (hACC2) (Table 2b, additional results), 10 to 40 nM; on fungal (fACC2) (Table 2a), 1 to 5 nM; at fungal (fACC2) (Table 2b, additional results), 1 to 5 nM. In addition, the MIC with C. krusei (setting [4]) was 2.01 to 4 µg/mL (≈ 3.27 to 6.51 µM); in the assay with C. albicans (setting [5]), 0.25 to 1 µg/mL (≈ 0.407 to 1.63 µM); in the assay with C. parapsilosis (setting [6]), 1.01 to 2 µg/mL (≈ 1.64 to 3.25 µM).
`COc1ccccc1[C@@H](O)Cn1c(=O)n([C@@H](C)C(=O)N(C)C(C)C)c(=O)c2c(C)c(-n3nccn3)sc21` [Compound I-200]: the concentration for half-maximal inhibition (IC50) on human (hACC2) (Table 2b, additional results) is 10 to 40 nM; at fungal (fACC2) (Table 2b, additional results), 1 to 5 nM. Moreover, the minimal inhibitory concentration (MIC) with C. krusei (setting [4]), in the assay with C. albicans (setting [5]) and in the assay on C. parapsilosis (setting [6]) was 2.01 to 4 µg/mL (≈ 3.82 to 7.6 µM) each time.
Take `COc1ccccc1[C@@H](O)Cn1c(=O)n([C@@H](C)C(=O)NC(C)C)c(=O)c2c(C)c(-n3nccn3)sc21` [Compound I-201]: the concentration for half-maximal inhibition (IC50) on human (hACC2) (Table 2b, additional results) fell in the range of 10 to 40 nM; on fungal (fACC2) (Table 2b, additional results) it was 0.3 to 1 nM. Further, the MIC in the assay on C. krusei (setting [1]) lay within 2.01 to 4 µg/mL (≈ 3.92 to 7.8 µM); with C. albicans (setting [2]), 2.01 to 4 µg/mL (≈ 3.92 to 7.8 µM); in the assay with C. parapsilosis (setting [3]), 1.01 to 2 µg/mL (≈ 1.97 to 3.9 µM).
Turning to `CCc1ccc(F)cc1[C@@H](O)Cn1c(=O)n(C(C)(C)C(N)=O)c(=O)c2c(C)c(-n3nccn3)sc21` [Compound I-202], the IC50 against human (hACC2) (Table 2b, additional results) fell in the range of 10 to 40 nM; at fungal (fACC2) (Table 2b, additional results) it was 1 to 5 nM. The minimal inhibitory concentration (MIC) with C. krusei (setting [4]), with C. albicans (setting [5]) and with C. parapsilosis (setting [6]) was over 4.01 µg/mL throughout.
As to `COc1ccccc1[C@H](Cn1c(=O)n([C@@H](C)C(=O)N(C)C(C)C)c(=O)c2c(C)c(-n3nccn3)sc21)OCCO` [Compound I-207], the IC50 is 5 to 10 nM against human (hACC2) (Table 2b, additional results) and 0.3 to 1 nM on fungal (fACC2) (Table 2b, additional results). Besides, the MIC in the assay on C. krusei (setting [4]), in the assay on C. albicans (setting [5]) and with C. parapsilosis (setting [6]) was 1.01 to 2 µg/mL (≈ 1.77 to 3.5 µM) in each case.
For `COc1ccccc1[C@H](Cn1c(=O)n(C(C)(C)C(=O)NC(C)C)c(=O)c2c(C)c(-n3nccn3)sc21)OCCN1CC(F)C1` [Compound I-209], the 50% inhibitory concentration (IC50) against human (hACC2) (Table 2b, additional results) is over 40 nM; on fungal (fACC2) (Table 2b, additional results), 1 to 5 nM. Moreover, the MIC in the assay with C. krusei (setting [1]) lay in the range of 0.25 to 1 µg/mL (≈ 0.398 to 1.59 µM); with C. albicans (setting [2]), 1.01 to 2 µg/mL (≈ 1.61 to 3.19 µM); in the assay on C. parapsilosis (setting [3]), 0.25 to 1 µg/mL (≈ 0.398 to 1.59 µM).

Source of the values: patent publication US10800791B2, “Triazole ACC inhibitors and uses thereof” (Gilead Apollo, LLC, priority 2015, dated 2020).
